The numbers were not newly measured in US20220339088A1, “METHOD FOR DYEING KERATIN MATERIAL, COMPRISING THE USE OF AN ORGANIC C1-C6 ALKOXY SILANE AND AN ACIDIFIER” (Henkel AG & Co. KGaA, priority 2019, published 2022), which cites them from elsewhere.

The conditions of the data set: 25° C.

As for `O=S(=O)([O-])c1ccc(N=Nc2c(O)ccc3ccccc23)cc1.[Na+]` [Acid Orange 7, sodium salt of 4-[(2-hydroxy-1-naphthyl)azo]benzene sulphonate], the solubility in water entry is given as “more than 7 g/L”.
As to `Nc1cc(S(=O)(=O)[O-])cc2cc(S(=O)(=O)[O-])c(N=Nc3ccccc3)c(O)c12.[Na+].[Na+]` [Acid Red 33, diantrium salt of 5-amino-4-hydroxy-3-(phenylazo)-naphthalene-2,7-disulphonate], the solubility in water was 2500 µg/mL.
Consider `O=C([O-])c1c(Cl)c(Cl)c(Cl)c(Cl)c1-c1c2c(Br)cc(=O)c(Br)c-2oc2c(Br)c(O)cc(Br)c12.O=C([O-])c1c(Cl)c(Cl)c(Cl)c(Cl)c1-c1c2c(Br)cc(=O)c(Br)c-2oc2c(Br)c(O)cc(Br)c12.[Na+].[Na+]` [Acid Red 92, disodium salt of 3,4,5,6-tetrachloro-2-(1,4,5,8-tetrabromo-6-hydroxy-3-oxoxanthen-9-yl)benzoic acid], for which the solubility in water result is “greater than 10 g/L”.
`O=C([O-])C1=NN(c2ccc(S(=O)(=O)[O-])cc2)C(=O)C1N=Nc1ccc(S(=O)(=O)[O-])cc1.[Na+].[Na+].[Na+]` (stereo not shown) [Acid Yellow 23, trisodium salt of 4,5-dihydro-5-oxo-1-(4-sulfophenyl)-4-((4-sulfophenyl)azo)-1H-pyrazole-3-carboxylic acid]: the “solubility in water (in words)” value is “highly soluble”.
